# Test results from patent US7208515B2, “Diphenylmethyl compounds useful as muscarinic receptor antagonists” (Theravance, Inc., priority 2004, dated 2007).
# Columns and labels:
# [1] = tested on: ACh-induced bronchoconstriction; experiment: Duration of bronchoprotection in guinea pig model of acetylcholine-induced bronchoconstriction; format: in vivo; details: inhalation, 1.5 hours post-dose
# Protocol: Determination of Duration of Bronchoprotection in Guinea Pig Model of Acetylcholine-Induced Bronchoconstriction
# Groups of six male guinea pigs (Duncan-Hartley (HsdPoc:DH) Harlan, Madison, Wis.) weighing between 250 and 350 g were individually identified by cage cards. Throughout the study animals were allowed access to food and water ad libitum.
# Test compounds were administered via inhalation over 10 minutes in a whole-body exposure dosing chamber (R&S Molds, San Carlos, Calif.). The dosing chambers were arranged so that an aerosol was simultaneously delivered to 6 individual chambers from a central manifold. Guinea pigs were exposed to an aerosol of a test compound or vehicle (WFI). […] This was measured gravimetrically by comparing pre-and post-nebulization weights of the filled nebulizer.
# The bronchoprotective effects of test compounds administered via inhalation were evaluated using whole body plethysmography at 1.5, 24, 48 and 72 hours post-dose.
# Forty-five minutes prior to the start of the pulmonary evaluation, each guinea pig was anesthetized with an intramuscular injection of ketamine (43.75 mg/kg), xylazine (3.50 mg/kg) and acepromazine (1.05 mg/kg). […] The depth of anesthesia was monitored and adjusted if the animal responded to pinching of its paw or if the respiration rate was greater than 100 breaths/minute. […]
# [2] = tested on: pilocarpine-evoked salivation; experiment: Inhalation guinea pig salivation assay; format: in vivo
# Protocol: Inhalation Guinea Pig Salivation Assay
# Guinea pigs (Charles River, Wilmington, Mass.) weighing 200–350 g were acclimated to the in-house guinea pig colony for at least 3 days following arrival. Test compound or vehicle were dosed via inhalation (IH) over a 10 minute time period in a pie shaped dosing chamber (R&S Molds, San Carlos, Calif.). Test solutions were dissolved in sterile water and delivered using a nebulizer filled with 5.0 mL of dosing solution. Guinea pigs were restrained in the inhalation chamber for 30 minutes. During this time, guinea pigs were restricted to an area of approximately 110 sq. cm. […] Upon completion of nebulization, guinea pigs were evaluated at 1.5, 6, 12, 24, 48, or 72 hrs after treatment.
# Guinea pigs were anesthetized one hour before testing with an intramuscular (IM) injection of a mixture of ketamine 43.75 mg/kg, xylazine 3.5 mg/kg, and acepromazine 1.05 mg/kg at an 0.88 mL/kg volume. […] Saliva was collected for 10 minutes, at which point the gauze pad was weighed and the difference in weight recorded to determine the amount of accumulated saliva (in mg). The mean amount of saliva collected for animals receiving the vehicle and each dose of test compound was calculated. […] Results were calculated using result means (n=3 or greater). Confidence intervals (95%) were calculated for each dose at each time point using two-way ANOVA. […]
structure (smiles),measurement,setting,value
CNCC(=O)NCCCCCN1CC[C@@H](C(C(N)=O)(c2ccccc2)c2ccccc2)C1 [Example 1],PD2(50) for ACh-induced bronchoconstriction,[1],less than 200 μg/mL
same,apparent lung selectivity index (ratio of anti-sialagogue ID50 to bronchoprotective ID50),[2],greater than 5
